Assay results published in ChEMBL document CHEMBL1138891, “3-(4-Piperidinyl)indoles and 3-(4-piperidinyl)pyrrolo-[2,3-b]pyridines as ligands for the ORL-1 receptor” (Bioorg Med Chem Lett, 2006).

Assays:
[1] = Half life in human liver microsomes; assay type: ADME, Microsome
[2] = Stability in human liver microsome after 60 mins; assay type: ADME; details: liver microsomes, read-out: Stability

c1cc2c3c(cccc3c1)C(N1CCC(c3c[nH]c4ncccc34)CC1)C2 (configuration not stated)
half-life [1]: 15 min | remaining at 1 h [2]: 14%
